The nature of series [1]: Solubility of ICG in dichloromethane when phospholipid was added. As to conditions: phospholipid not added; inferred by comparison with ICG-methanol solution. Format: physicochemical. How it is done: 2 molar equivalents of a phospholipid was added to 5.5 mg of ICG. As the phospholipid, DSPC or DOPE was used. Each of these ICG-phospholipid mixtures was dissolved in 2 mL of dichloromethane. Controls were brepared by dissolving in 10 G in methanol or dichloromethane. All these 10 G solutions were filtered with a filter having a pore size of 0.2 μm and then diluted 500-fold with dichloromethane.

Series [2] in a line: Composition ratio of DSPC and ICG: ICG dissolved in chloroform. As to conditions: 47.2 mM DSPC in the ICG chloroform solution. Format: physicochemical. How it is done:
0.5, 1 or 2 Molar Equivalents of DSPC was Added to 55 mg of ICG.
3 mL of chloroform was added to each of these ICG-DSPC mixtures. The mixtures were heated at 40° C. for two minutes, and ultrasonic irradiation was performed for one minute. […] These suspensions were filtered with a filter having a pore size of 0.45 μm to remove insoluble matters. Each of the filtrates was diluted 3000-fold with methanol.

Regarding `CC1(C)C(/C=C/C=C/C=C/C=C2/N(CCCCS(=O)(=O)[O-])c3ccc4ccccc4c3C2(C)C)=[N+](CCCCS(=O)(=O)[O-])c2ccc3ccccc3c21.[Na+]` [ICG, indocyanine green], the “ICG dissolved in dichloromethane” value in series [1] is reported as “approximately 0.6 mM”. Moreover, the “concentration of ICG dissolved” value in series [2] was determined as 15700 µM.

For the origin of these results see patent publication US20120052017A1, “METHOD FOR PRODUCING CONTRAST AGENT FOR OPTICAL IMAGING” (CANON KABUSHIKI KAISHA, priority 2010, published 2012).
